Data as given in PubChem BioAssay AID2060626 (Molecular Pharmacology Branch, DTP, NCI, 2025).
Where “and” joins values, the source holds several entries; their conditions need not be identical. Identical values can stand only once.

System: 168753-222-R-J1-PDC complex spheroid viability
Assay: Anticancer human tumor 168753-222-R-J1-PDC patient-derived bladder carcinoma cell line growth inhibition [CLK]
Details: for viability, T/C: stronger effect = lower value; active means viability on the fitted dose curve at most 10% of control; inactive means the rest
Outline: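 Patient-derived tumor cells grown as complex spheroids with HUVEC endothelial cells and mesenchymal stem cells, treated with drug combinations. Concentrations descend in half-log steps from near clinical Cmax, or from 10 microM if Cmax unknown.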

[1] = curve of first compound, second compound 0.0316 µM
[2] = curve of first compound, second compound 0.1 µM
[3] = curve of first compound, second compound 0.316 µM
[4] = curve of first compound, second compound 1 µM
[5] = curve of first compound, second compound 3.16 µM
[6] = curve of first compound, second compound 10 µM
[7] = second compound 0.0316 µM, first compound 0.0316 µM
[8] = second compound 0.0316 µM, first compound 0.1 µM
[9] = second compound 0.0316 µM, first compound 0.316 µM
[10] = second compound 0.0316 µM, first compound 1 µM
[11] = second compound 0.0316 µM, first compound 3.16 µM
[12] = second compound 0.0316 µM, first compound 10 µM
[13] = second compound 0.1 µM, first compound 0.0316 µM
[14] = second compound 0.1 µM, first compound 0.1 µM
[15] = second compound 0.1 µM, first compound 0.316 µM
[16] = second compound 0.1 µM, first compound 1 µM
[17] = second compound 0.1 µM, first compound 3.16 µM
[18] = second compound 0.1 µM, first compound 10 µM
[19] = second compound 0.316 µM, first compound 0.0316 µM
[20] = second compound 0.316 µM, first compound 0.1 µM
[21] = second compound 0.316 µM, first compound 0.316 µM
[22] = second compound 0.316 µM, first compound 1 µM
[23] = second compound 0.316 µM, first compound 3.16 µM
[24] = second compound 0.316 µM, first compound 10 µM
[25] = second compound 1 µM, first compound 0.0316 µM
[26] = second compound 1 µM, first compound 0.1 µM
[27] = second compound 1 µM, first compound 0.316 µM
[28] = second compound 1 µM, first compound 1 µM
[29] = second compound 1 µM, first compound 3.16 µM
[30] = second compound 1 µM, first compound 10 µM
[31] = second compound 3.16 µM, first compound 0.0316 µM
[32] = second compound 3.16 µM, first compound 0.1 µM
[33] = second compound 3.16 µM, first compound 0.316 µM
[34] = second compound 3.16 µM, first compound 1 µM
[35] = second compound 3.16 µM, first compound 3.16 µM
[36] = second compound 3.16 µM, first compound 10 µM
[37] = second compound 10 µM, first compound 0.0316 µM
[38] = second compound 10 µM, first compound 0.1 µM
[39] = second compound 10 µM, first compound 0.316 µM
[40] = second compound 10 µM, first compound 1 µM
[41] = second compound 10 µM, first compound 3.16 µM
[42] = second compound 10 µM, first compound 10 µM
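Further: viability measured after seven days of drug exposure.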
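Wherever viability, T/C is given: luminescence signal used as surrogate for viable cell amount; 100% = DMSO vehicle control wells.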

CC(CO)NC(=O)c1cc(-c2ccc(Cl)cc2)nn(-c2cnn(C)c2)c1=O (stereo not given)
inactive: viability, T/C (compound 0.0316 µM) 105% and 101% | viability, T/C (compound 0.1 µM) 105% and 90.6% | viability, T/C (compound 0.316 µM) 94.4% and 95.7% | viability, T/C (compound 1 µM) 94.6% and 100% | viability, T/C (compound 3.16 µM) 92.7% and 107% | viability, T/C (compound 10 µM) 89.6% and 82.1%
> 10000 nM: IC50 (curve of compound)

CC(Nc1ccc2c(c1)OCCn1cc(N3C(=O)OCC3C(F)F)nc1-2)C(N)=O (stereo not given) + CN1CCN(c2cc(C(=O)Nc3cc4cc(-c5cnn(C)c5)ccc4cn3)ccn2)CC1
< 31.6 nM: IC50 [2] | IC50 [3] | IC50 [4] | IC50 [5] | IC50 [6]
active: viability, T/C [16] 8.91% | viability, T/C [17] 7% | viability, T/C [18] 7.78% | viability, T/C [21] 7.13% | viability, T/C [22] 1.63% | viability, T/C [23] 0.95% | viability, T/C [24] 0.77% | viability, T/C [25] 0.37% | viability, T/C [26] 0.22% | viability, T/C [27] 0.1% | viability, T/C [28] 0.05% | viability, T/C [29] 0.08% | viability, T/C [30] 0.08% | viability, T/C [31] 0.12% | viability, T/C [32] 0.1% | viability, T/C [33] 0.35% | viability, T/C [34] 0.06% | viability, T/C [35] 2.39% | viability, T/C [36] 0.59% | viability, T/C [37] 0.05% | viability, T/C [38] 0.11% | viability, T/C [39] 1.89% | viability, T/C [40] 0.11% | viability, T/C [41] 0.27% | viability, T/C [42] 0.33%
65.7 nM: IC50 [1]
inactive: viability, T/C [7] 72.8% | viability, T/C [8] 37% | viability, T/C [9] 15% | viability, T/C [10] 12.5% | viability, T/C [11] 9.81% | viability, T/C [12] 9.9% | viability, T/C [13] 41.8% | viability, T/C [14] 18.2% | viability, T/C [15] 12.3% | viability, T/C [19] 15.9% | viability, T/C [20] 10.2%

COc1c(OCCCN2CCOCC2)ccc2c3n(c(=NC(=O)c4cnc(N)nc4)nc12)CCN3
active: viability, T/C (compound 0.1 µM) 13.6% and 15.3% | viability, T/C (compound 0.316 µM) 7.59% and 8.3% | viability, T/C (compound 1 µM) 2.26% and 3.63%
inactive: viability, T/C (compound 0.00316 µM) 59.7% and 74.2% | viability, T/C (compound 0.01 µM) 44.1% and 48.3% | viability, T/C (compound 0.0316 µM) 10.2% and 17%
6.47 nM and 8.95 nM: IC50 (curve of compound)

C#Cc1c(F)ccc2cc(O)cc(-c3ncc4c(N5CC6CCC(C5)N6)nc(OCC56CCCN5CC(F)C6)nc4c3F)c12 (stereo not given) + CN1CCN(c2cc(C(=O)Nc3cc4cc(-c5cnn(C)c5)ccc4cn3)ccn2)CC1
1850 nM: IC50 [2]
> 10000 nM: IC50 [1]
active: viability, T/C [24] 7.39% | viability, T/C [25] 0.54% | viability, T/C [26] 0.65% | viability, T/C [27] 1.92% | viability, T/C [28] 0.88% | viability, T/C [29] 0.75% | viability, T/C [30] 0.34% | viability, T/C [31] 2.41% | viability, T/C [32] 0.59% | viability, T/C [33] 1.48% | viability, T/C [34] 0.13% | viability, T/C [35] 0.39% | viability, T/C [36] 0.22% | viability, T/C [37] 0.18% | viability, T/C [38] 0.32% | viability, T/C [39] 0.39% | viability, T/C [40] 0.2% | viability, T/C [41] 0.57% | viability, T/C [42] 3.73%
< 31.6 nM: IC50 [3] | IC50 [4] | IC50 [5] | IC50 [6]
inactive: viability, T/C [7] 105% | viability, T/C [8] 107% | viability, T/C [9] 101% | viability, T/C [10] 103% | viability, T/C [11] 96.4% | viability, T/C [12] 70.3% | viability, T/C [13] 77.7% | viability, T/C [14] 64.7% | viability, T/C [15] 63.9% | viability, T/C [16] 64.2% | viability, T/C [17] 37.4% | viability, T/C [18] 38% | viability, T/C [19] 14.7% | viability, T/C [20] 14.6% | viability, T/C [21] 11.8% | viability, T/C [22] 12% | viability, T/C [23] 12.1%

CC(=O)O[C@H]1C(=O)[C@@]2(C)[C@H]([C@H](OC(=O)c3ccccc3)[C@]3(O)C[C@H](OC(=O)[C@H](O)[C@@H](NC(=O)c4ccccc4)c4ccccc4)C(C)=C1C3(C)C)[C@]1(OC(C)=O)CO[C@@H]1C[C@@H]2O + CNC(=O)c1ccc(Nc2nc(OC3CCCC3)c3c(-c4ccc5nc(C)oc5c4)c[nH]c3n2)c(OC)c1
> 10000 nM: IC50 [2] | IC50 [3]
130 nM: IC50 [1]
inactive: viability, T/C [7] 74.5% | viability, T/C [8] 39.9% | viability, T/C [9] 30.9% | viability, T/C [10] 33.1% | viability, T/C [11] 53.4% | viability, T/C [12] 53.2% | viability, T/C [13] 80.8% | viability, T/C [14] 64.2% | viability, T/C [15] 64.6% | viability, T/C [16] 67.7% | viability, T/C [17] 86.6% | viability, T/C [18] 88.2% | viability, T/C [19] 79.1% | viability, T/C [20] 80.5% | viability, T/C [21] 77.5% | viability, T/C [22] 79.9% | viability, T/C [23] 85% | viability, T/C [24] 93.9% | viability, T/C [25] 52.3% | viability, T/C [26] 34.7% | viability, T/C [27] 41.2% | viability, T/C [28] 29.4% | viability, T/C [29] 52.9% | viability, T/C [30] 62.7% | viability, T/C [31] 20.9% | viability, T/C [32] 22.2% | viability, T/C [33] 26.7% | viability, T/C [34] 31.1% | viability, T/C [35] 29.9% | viability, T/C [36] 36.4% | viability, T/C [37] 20.9% | viability, T/C [38] 18.6% | viability, T/C [39] 23.8% | viability, T/C [40] 29.1% | viability, T/C [41] 35.4% | viability, T/C [42] 31.4%
< 31.6 nM: IC50 [4] | IC50 [5] | IC50 [6]
